US9815787B2, “Sulfonamide derivative or pharmaceutically acceptable acid addition salt thereof” (UNIVERSITY OF TSUKUBA, priority 2013, dated 2017)

Molecular target: T1, OX2R (Homo sapiens, UniProt O43614)
T1 construct: expressed in transfected cells; host or cells: CHO (Chinese hamster ovary) cells constitutively expressing the OX2R gene and NFAT-luciferase (CHOOX2R)
T1 sequence (O43614 1-444): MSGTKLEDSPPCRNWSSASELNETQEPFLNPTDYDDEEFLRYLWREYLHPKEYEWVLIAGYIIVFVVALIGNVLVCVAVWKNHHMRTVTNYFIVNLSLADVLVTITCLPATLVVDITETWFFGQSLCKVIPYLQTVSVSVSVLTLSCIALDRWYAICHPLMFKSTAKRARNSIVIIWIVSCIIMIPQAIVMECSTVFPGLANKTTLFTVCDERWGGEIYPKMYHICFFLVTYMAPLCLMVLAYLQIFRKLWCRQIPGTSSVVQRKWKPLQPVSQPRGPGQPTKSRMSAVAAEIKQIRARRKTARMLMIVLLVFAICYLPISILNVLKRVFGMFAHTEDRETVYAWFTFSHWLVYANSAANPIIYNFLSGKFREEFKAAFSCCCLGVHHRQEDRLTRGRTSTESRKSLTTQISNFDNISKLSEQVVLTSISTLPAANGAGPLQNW
Experiment: Evaluation of agonist activity against OX2R (CHOOX2R cells, Fura2AM fluorescence, FDSS3000)
Assay type: cell-based
Procedure, shortened: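 CHO cells stably expressing human OX2R (and NFAT-luciferase), cultured 48 h in 5% FBS DMEM. Agonist response read as change in Fura2AM fluorescence on compound addition in HEPES buffer. Final compound concentrations 0.1, 1.0 or 10 μM; 1% DMSO.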

[1] = test compound 0.1 μM; relative to orexin-A as full agonist (100%); CHOOX2R cells
[2] = test compound 1.0 μM; relative to orexin-A as full agonist (100%); CHOOX2R cells
[3] = test compound 10 μM; relative to orexin-A as full agonist (100%); CHOOX2R cells
[4] = test compound 0.1 μM; CHOOX2R cells; relative to orexin-A as full agonist (100%)
[5] = test compound 1.0 μM; CHOOX2R cells; relative to orexin-A as full agonist (100%)
[6] = test compound 10 μM; CHOOX2R cells; relative to orexin-A as full agonist (100%)

Structure (SMILES)	Response (0.1 μM (%)) [1] [%]	Response (1.0 μM (%)) [2] [%]	Response (10 μM (%)) [3] [%]	Response (0.1 μM (%)) [4] [%]	Response (1.0 μM (%)) [5] [%]	Response (10 μM (%)) [6] [%]	EC50 (OX2R agonist activity; CHOOX2R cells) [nM]	Emax (conversion with orexin-A as full agonist (maximum agonist activity 100%)) [%]
COc1ccc(-c2ccccc2F)cc1S(=O)(=O)Nc1cccc(NCCNC(=O)c2ccc(Cl)cc2)c1 [Example 9, 4-chloro-N-(2-((3-(2′-fluoro-4-methoxy-[1,1′-biphenyl]-3-ylsulfonamide)phenyl)amino)ethyl)benzamide]	<5	<5	<5					
COc1ccccc1C(=O)NCCNc1cccc(NS(=O)(=O)c2cc(-c3cccc(C(=O)N4CCCCC4)c3)ccc2OC)c1 [Example 80, 2-methoxy-N-(2-((3-(4-methoxy-3′-(piperidine-1-carbonyl)-1-[1,1′-biphenyl]-3-ylsulfonamido)phenyl)amino)ethyl)benzamide]				37	91	91		
COc1ccc(-c2ccccc2F)cc1S(=O)(=O)Nc1cccc(NCCNC(=O)c2cccc(Cl)c2)c1 [Example 8, 3-chloro-N-(2-((3-(2′-fluoro-4-methoxy-[1,1′-biphenyl]-3-ylsulfonamide)phenyl)amino)ethyl)benzamide]	<5	9	46					
COc1ccc(F)c(-c2ccc(OC)c(S(=O)(=O)Nc3cccc(NCCNC(=O)c4ccccc4OC)c3)c2)c1 [Example 34, N-(2-((3-(2′-fluoro-4,5′-dimethoxy-[1,1′-biphenyl]-3-ylsulfonamide)phenyl)amino)ethyl)-2-methoxybenzamide]				13	64	123		
COc1cccc(C(=O)NCCNc2cccc(NS(=O)(=O)c3cc(-c4cccc(C(=O)N(C)C)c4)ccc3OC)c2)c1 [Example 41, 4′-methoxy-3′-(N-(3-((2-(3-methoxybenzamido)ethyl)amino)phenyl)sulfamoyl)-N,N-dimethyl-[1,1′-biphenyl]-3-carboxamide]				70	107	115	33	57
COc1cccc(C(=O)NCCNc2cccc(NS(=O)(=O)c3cc(-c4cc(Cl)ccc4Cl)ccc3OC)c2)c1 [Example 26, N-(2-((3-(2′,5′-dichloro-4-methoxy-[1,1′-biphenyl]-3-ylsulfonamide)phenyl)amino)ethyl)-3-methoxybenzamide]	<5	5	29					
COc1cccc(C(=O)NCCNc2cccc(NS(=O)(=O)c3cc(-c4ccccc4C)ccc3OC)c2)c1 [Example 21, 3-methoxy-N-(2-((3-(4-methoxy-2′-methyl-[1,1′-biphenyl]-3-ylsulfonamide)phenyl)amino)ethyl)benzamide]	<5	<5	11					
COc1ccc(-c2cccc(C(=O)N(C)C)c2)cc1S(=O)(=O)Nc1cccc(NCCNC(=O)c2cn(C)cn2)c1 [Example 64, N-(2-((3-(3′-(dimethylcarbamoyl)-4-methoxy-[1,1′-biphenyl]-3-ylsulfonamido)phenyl)amino)ethyl)-1-methyl-1H-imidazole-4-carboxamide]				<5	68	72		
COc1ccc(-c2cccc(C(=O)N(C)C)c2)cc1S(=O)(=O)Nc1cccc(NCCNC(=O)c2ccc(Cl)s2)c1 [Example 61, 5-chloro-N-(2-((3-(3′-(dimethylcarbamoyl)-4-methoxy-[1,1′-biphenyl]-3-ylsulfonamido)phenyl)amino)ethyl)thiophene-2-carboxamide]				<5	18	69		
COc1cccc(C(=O)NCCNc2cccc(NS(=O)(=O)c3cc(-c4cncc(OC)c4)ccc3OC)c2)c1 [Example 98, 3-methoxy-N-(2-((3-(2-methoxy-5-(5-methoxypyridin-3-yl)phenylsulfonamido)phenyl)amino)ethyl)benzamide]	<5	22	91					
